pIC50, pKi: −log10 of the molar value. Converted amounts (≈) assume the structure as drawn. Like-named read-outs stand apart in the source and are kept apart here.
Experiments:
Muscarinic M1 = Muscarinic M1 (Homo sapiens, UniProt P11229); assay: Receptor selectivity (Cerep); type: binding
Muscarinic M2 = Muscarinic M2 (Homo sapiens, UniProt P08172); assay: Receptor selectivity (Cerep); type: binding
Muscarinic M3 = Muscarinic M3 (Homo sapiens, UniProt P20309); assay: Receptor selectivity (Cerep); type: binding
Sequence of Muscarinic M3 (P20309 whole entry): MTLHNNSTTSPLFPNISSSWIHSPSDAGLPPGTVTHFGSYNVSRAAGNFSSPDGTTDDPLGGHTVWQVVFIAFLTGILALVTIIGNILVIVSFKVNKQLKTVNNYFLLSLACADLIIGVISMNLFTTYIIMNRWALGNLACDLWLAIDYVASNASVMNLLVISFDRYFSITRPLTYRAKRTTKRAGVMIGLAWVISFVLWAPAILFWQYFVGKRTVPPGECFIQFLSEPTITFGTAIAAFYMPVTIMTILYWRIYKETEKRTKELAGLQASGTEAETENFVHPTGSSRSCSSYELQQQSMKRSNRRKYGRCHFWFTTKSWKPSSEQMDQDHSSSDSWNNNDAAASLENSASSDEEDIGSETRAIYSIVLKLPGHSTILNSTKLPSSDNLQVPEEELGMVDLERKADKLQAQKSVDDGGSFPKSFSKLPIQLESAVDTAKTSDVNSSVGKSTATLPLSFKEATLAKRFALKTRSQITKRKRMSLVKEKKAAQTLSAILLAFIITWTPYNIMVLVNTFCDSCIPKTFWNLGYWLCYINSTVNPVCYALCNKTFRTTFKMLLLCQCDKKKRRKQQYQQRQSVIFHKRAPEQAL

Neurokinin NK1 = Neurokinin NK1 (Homo sapiens, UniProt P25103); assay: Receptor selectivity (Cerep); type: binding
Sequence of Neurokinin NK1 (P25103 whole entry): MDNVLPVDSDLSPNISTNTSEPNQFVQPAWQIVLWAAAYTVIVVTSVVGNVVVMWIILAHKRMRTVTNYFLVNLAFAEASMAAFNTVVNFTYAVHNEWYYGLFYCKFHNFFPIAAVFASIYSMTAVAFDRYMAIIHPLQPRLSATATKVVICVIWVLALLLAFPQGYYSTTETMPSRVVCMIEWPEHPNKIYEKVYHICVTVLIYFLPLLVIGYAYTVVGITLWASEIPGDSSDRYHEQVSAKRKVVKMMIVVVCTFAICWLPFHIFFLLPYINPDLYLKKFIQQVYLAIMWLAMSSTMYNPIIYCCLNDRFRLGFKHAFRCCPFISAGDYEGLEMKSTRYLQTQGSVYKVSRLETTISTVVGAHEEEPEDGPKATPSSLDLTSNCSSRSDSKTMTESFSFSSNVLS

DA transporter = DA transporter (Homo sapiens, UniProt Q01959); assay: Receptor selectivity (Cerep); type: binding
Sequence of DA transporter (Q01959 whole entry, species assumed): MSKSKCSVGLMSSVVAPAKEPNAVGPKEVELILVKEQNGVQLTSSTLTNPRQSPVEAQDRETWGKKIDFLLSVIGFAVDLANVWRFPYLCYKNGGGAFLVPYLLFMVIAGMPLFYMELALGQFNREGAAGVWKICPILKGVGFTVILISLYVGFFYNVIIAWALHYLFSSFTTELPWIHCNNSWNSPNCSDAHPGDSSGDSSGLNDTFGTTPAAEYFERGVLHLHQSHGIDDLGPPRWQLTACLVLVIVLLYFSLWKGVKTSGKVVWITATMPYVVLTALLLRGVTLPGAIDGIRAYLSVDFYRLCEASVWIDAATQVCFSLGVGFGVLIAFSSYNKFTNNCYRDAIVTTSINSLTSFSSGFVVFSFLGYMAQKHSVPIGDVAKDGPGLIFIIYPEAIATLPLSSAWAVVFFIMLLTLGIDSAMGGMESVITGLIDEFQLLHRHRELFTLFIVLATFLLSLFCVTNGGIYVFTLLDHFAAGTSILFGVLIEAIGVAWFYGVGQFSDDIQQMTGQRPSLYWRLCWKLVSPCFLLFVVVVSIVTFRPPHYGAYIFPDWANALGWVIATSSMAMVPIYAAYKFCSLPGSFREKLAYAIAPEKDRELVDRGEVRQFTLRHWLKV

hERG = hERG (Homo sapiens, UniProt Q12809); assay: hERG patch clamp; type: cell-based
Sequence of hERG (Q12809 whole entry): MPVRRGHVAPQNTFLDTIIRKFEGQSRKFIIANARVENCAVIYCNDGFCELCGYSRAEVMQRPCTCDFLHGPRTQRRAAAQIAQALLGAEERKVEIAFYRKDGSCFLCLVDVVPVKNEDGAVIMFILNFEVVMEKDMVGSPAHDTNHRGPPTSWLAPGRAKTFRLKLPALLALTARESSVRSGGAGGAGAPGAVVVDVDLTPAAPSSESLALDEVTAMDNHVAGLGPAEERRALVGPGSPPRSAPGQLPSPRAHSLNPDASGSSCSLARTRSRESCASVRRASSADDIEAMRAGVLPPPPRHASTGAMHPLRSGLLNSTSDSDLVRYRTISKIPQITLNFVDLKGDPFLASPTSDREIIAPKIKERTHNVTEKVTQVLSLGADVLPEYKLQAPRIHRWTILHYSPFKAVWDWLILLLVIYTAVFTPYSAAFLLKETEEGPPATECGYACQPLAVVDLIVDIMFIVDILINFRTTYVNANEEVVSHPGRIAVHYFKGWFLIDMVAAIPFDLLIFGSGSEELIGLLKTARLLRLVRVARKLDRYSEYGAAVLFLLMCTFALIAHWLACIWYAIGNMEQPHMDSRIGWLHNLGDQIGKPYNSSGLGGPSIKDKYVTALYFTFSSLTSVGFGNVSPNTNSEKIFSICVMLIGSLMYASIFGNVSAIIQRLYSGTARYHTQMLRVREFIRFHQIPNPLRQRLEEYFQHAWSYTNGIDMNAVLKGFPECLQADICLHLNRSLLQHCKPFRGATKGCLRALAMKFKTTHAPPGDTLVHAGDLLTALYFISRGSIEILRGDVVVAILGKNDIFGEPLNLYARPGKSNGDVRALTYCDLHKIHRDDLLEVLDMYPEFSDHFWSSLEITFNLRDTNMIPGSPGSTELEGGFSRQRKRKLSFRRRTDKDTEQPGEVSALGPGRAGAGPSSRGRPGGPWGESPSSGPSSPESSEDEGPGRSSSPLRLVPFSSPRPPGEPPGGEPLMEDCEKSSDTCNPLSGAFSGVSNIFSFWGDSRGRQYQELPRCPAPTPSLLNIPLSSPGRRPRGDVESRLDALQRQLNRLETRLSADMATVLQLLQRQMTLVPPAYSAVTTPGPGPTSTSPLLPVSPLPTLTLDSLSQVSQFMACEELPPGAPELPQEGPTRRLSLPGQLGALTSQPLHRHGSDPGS

Equilibrium solubility = type: physicochemical; settings: thermodynamic from solid
[1] = In vitro metabolic stability, mouse; type: in vitro ADME; settings: mouse (M); read-out: In vitro metabolic stability t1/2
[2] = In vitro metabolic stability, rat; type: in vitro ADME; settings: rat (R); read-out: In vitro metabolic stability t1/2
[3] = In vitro metabolic stability, monkey; type: in vitro ADME; settings: monkey (Mo); read-out: In vitro metabolic stability t1/2
CYP 1A2 = CYP 1A2 (Homo sapiens, UniProt P05177); assay: CYP inhibition; type: in vitro ADME
Sequence of CYP 1A2 (P05177 whole entry): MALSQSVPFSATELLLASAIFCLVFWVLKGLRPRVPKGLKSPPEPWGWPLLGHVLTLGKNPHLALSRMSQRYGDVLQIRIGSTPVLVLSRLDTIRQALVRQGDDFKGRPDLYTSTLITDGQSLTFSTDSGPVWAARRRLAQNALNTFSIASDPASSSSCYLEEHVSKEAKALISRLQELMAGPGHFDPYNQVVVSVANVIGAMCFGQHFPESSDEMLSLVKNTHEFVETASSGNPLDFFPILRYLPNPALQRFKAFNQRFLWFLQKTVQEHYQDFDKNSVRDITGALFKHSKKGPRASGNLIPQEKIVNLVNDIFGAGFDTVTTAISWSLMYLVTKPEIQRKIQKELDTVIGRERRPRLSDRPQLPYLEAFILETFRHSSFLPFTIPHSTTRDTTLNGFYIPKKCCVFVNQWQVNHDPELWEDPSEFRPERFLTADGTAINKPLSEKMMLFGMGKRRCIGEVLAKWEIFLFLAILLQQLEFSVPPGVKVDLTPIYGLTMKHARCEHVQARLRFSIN

CYP 2C9 = CYP 2C9 (Homo sapiens, UniProt P11712); assay: CYP inhibition; type: in vitro ADME
Sequence of CYP 2C9 (P11712 whole entry): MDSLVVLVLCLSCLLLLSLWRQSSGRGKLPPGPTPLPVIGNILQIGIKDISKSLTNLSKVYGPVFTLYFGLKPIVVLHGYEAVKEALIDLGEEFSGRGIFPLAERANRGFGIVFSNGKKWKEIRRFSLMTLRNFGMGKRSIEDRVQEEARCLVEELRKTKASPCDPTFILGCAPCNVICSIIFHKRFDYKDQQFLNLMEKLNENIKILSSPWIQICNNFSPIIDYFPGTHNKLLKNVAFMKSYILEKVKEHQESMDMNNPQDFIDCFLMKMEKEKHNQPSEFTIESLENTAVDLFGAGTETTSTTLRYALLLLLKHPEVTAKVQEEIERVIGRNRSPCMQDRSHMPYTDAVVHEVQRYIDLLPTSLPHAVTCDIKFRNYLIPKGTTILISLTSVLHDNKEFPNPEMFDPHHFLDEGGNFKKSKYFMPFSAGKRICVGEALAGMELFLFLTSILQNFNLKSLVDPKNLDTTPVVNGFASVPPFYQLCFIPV

Caco-2 permeability = type: in vitro ADME; settings: human
Protein binding, dog = type: in vitro ADME; settings: dog (D)
Protein binding, human = type: in vitro ADME; settings: human (H)
Rat bioavailability = settings: in vivo, po
Mouse bioavailability = type: in vivo
Monkey bioavailability = settings: in vivo, po
[4] = 4-week oral toxicity and toxicokinetic study of CEP-37440 in monkeys, 4-week recovery; type: in vivo, cynomolgus monkeys (Macaca fascicularis)
Procedure: Male and female cynomolgus monkeys (Macaca fascicularis) were assigned to 4 groups (3-treated and a vehicle control group) consisting of 5 monkeys/sex/group. Dose levels evaluated in this study were 0 (pH-adjusted reverse osmosis water), 2.5, 7.5, and 20 mg/kg/day. The dosing volume was 5 mL/kg. CEP-37440 was administered as the trihydrochloride dihydrate salt form. After completion of the dosing phase, 3 monkeys/sex/group were euthanized and 2 monkeys/sex/group continued on a treatment-free recovery phase for an additional 4 weeks.

[5] = test system: Sup-M2 ALCL tumor xenografts; assay: Anti-tumor efficacy, NPM-ALK positive Sup-M2 ALCL xenograft; settings: for anti-tumor efficacy: 12 days
Procedure: (§1) Anti-Tumor Efficacy Studies—General Protocol
(§2) The tumor volumes were then calculated with the formula of 0.5236*L*W*(L+W)/2.
(§3) Anti-Tumor Efficacy in NPM-ALK Positive Sup-M2 and Karpas-299 ALCL Tumor Xenograft Models in Mice

[6] = test system: Karpas-299 tumor xenografts; settings: for anti-tumor efficacy: amorphous HCl salt
Procedure: as §1, §2, §3

[7] = test system: Detroit 562 HNSCC xenografts
Description: (§4) Anti-Tumor Efficacy Studies in Human Tumor Xenografts of Hormone-Independent Prostate Carcinoma, NSCL Carcinoma and HNSC Carcinoma
(§5) The human prostate carcinoma cell lines, CWR22 and PC3, and human head and neck squamous cell carcinoma cell line Detroit 562 were obtained from American Tissue Culture Collection (ATCC, Manassas, Va.). […] Human non-small cell lung cancer cell line HCC-827 and human breast cancer cell line BT474 were also purchased from the ATCC (Manassas, Va.) and cultured in RPMI (Cat #10-040, Mediatech Inc, Manassas, Va.) with 10% FBS. The rabbit phospho-FAK (Tyr397) (Cat #3283) and FAK antibodies (Cat #3285) were purchased from Cell Signaling Technology (Beverly, Mass.).
(§6) The mice were then monitored daily.
as §2

[8] = test system: HCC-827 human NSCL carcinoma xenografts
Description: as §4, §5, §6, §2

[9] = test system: PC-3 prostate tumor xenografts
Description: as §4, §5, §6, §2

[10] = 10 days
in vivo = settings: both, rat, po
Procedure: Animals were dosed via oral gavage.
Assessment of toxicity was based on mortality, clinical observations, body weights, body weight changes, food consumption, ophthalmic examinations, and clinical and anatomic pathology. Blood samples were collected for toxicokinetic evaluations.

[11] = test system: NCI-H2228 NSCLC tumor xenografts; assay: Anti-tumor activity, EML4-ALK positive NCI-H2228 NSCLC xenograft
Description: Anti-Tumor Activity in EML4-ALK Positive (NCI-H2228 and NCI-H3122) NSCLC Tumor Xenografts in Mice with Oral Dosing
Generation of EML4-ALK-positive and EML4-ALK-negative NSCLC Subcutaneous Tumor Xenografts in Scid Mice Female Scid/Beige mice (6-8 weeks, Taconic, Hudson. N.Y.) were maintained 5/cage in microisolator units on a standard laboratory diet (Teklad Labchow, Harlan Teklad, Madison, Wis.). Animals were housed under humidity- and temperature controlled conditions and the light/dark cycle was set at 12-hour intervals. Mice were quarantined at least 1 week prior to experimental manipulation. […] The mice were monitored until the tumor xenograft volumes reached 200-500 mm3.
The length (L) and width (W) of each tumor were measured with vernier calipers and the mouse body weight was determined every two to three days. […] Percent tumor growth inhibition (% TGI) was calculated as follows: (tumor volume of the control group at end of treatment—tumor volume of the treated group at the end of treatment)/tumor volume of the control group at the end of treatment. […] Complete tumor regression (CR) was defined as the tumor volume of the treated group at the end of treatment being less than 5% of the tumor volume of the treated group as the start of treatment. Statistical analyses of tumor volumes and mouse body weights were carried out with the Mann-Whitney Rank Sum Test. Plasma and tumor samples were obtained at 2 hours post final dose at each dose level, and the compound levels in plasma and tumor lysates were measured by LC-MS/MS

[12] = bid or qd oral dosing at 10 and 30 mg/kg
[13] = four weeks of additional treatment at 55 mg/kg qd po

Sequence of Muscarinic M2 (P08172 whole entry): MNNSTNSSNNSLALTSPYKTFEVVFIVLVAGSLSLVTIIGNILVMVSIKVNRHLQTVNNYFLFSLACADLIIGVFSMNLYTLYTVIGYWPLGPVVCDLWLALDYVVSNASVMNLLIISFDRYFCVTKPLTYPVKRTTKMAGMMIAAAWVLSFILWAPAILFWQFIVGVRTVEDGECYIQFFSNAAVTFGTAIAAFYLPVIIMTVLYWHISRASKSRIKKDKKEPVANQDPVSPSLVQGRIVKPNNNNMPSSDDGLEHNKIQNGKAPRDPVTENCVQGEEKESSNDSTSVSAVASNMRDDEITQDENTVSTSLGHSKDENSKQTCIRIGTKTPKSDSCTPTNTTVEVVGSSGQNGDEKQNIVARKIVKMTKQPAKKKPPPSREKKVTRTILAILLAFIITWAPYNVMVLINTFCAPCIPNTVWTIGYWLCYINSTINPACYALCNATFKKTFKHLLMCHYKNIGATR
Sequence of Muscarinic M1 (P11229 whole entry): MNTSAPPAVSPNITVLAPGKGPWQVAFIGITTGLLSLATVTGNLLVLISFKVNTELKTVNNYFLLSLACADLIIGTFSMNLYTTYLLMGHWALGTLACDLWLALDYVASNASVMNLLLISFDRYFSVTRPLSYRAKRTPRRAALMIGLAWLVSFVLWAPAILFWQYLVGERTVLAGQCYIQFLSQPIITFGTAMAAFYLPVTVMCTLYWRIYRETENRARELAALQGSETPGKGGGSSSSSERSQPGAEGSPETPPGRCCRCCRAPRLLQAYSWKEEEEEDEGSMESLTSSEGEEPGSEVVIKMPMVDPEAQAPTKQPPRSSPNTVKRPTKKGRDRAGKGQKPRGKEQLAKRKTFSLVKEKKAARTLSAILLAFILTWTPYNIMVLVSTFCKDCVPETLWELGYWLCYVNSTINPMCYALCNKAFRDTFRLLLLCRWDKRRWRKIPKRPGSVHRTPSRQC

Compound `CNC(=O)c1ccccc1Nc1nc(Nc2ccc3c(c2OC)CCC[C@H](N2CCN(CCO)CC2)C3)ncc1Cl` [CEP-37440, 2-[[5-chloro-2-[[(6S)-6-[4-(2-hydroxyethyl)piperazin-1-yl]-1-methoxy-6,7,8,9-tetrahydro-5H-benzo[7]annulen-2-yl]amino]pyrimidin-4-yl]amino]-N-methyl-benzamide] has a pKi (Muscarinic M1) of 5.61, a pKi (Muscarinic M2) of 5.70 and a pKi (Muscarinic M3) of 5.46. The pKi (Neurokinin NK1) was 5.92, the pKi (DA transporter) was 5.68 and the pIC50 (hERG) was less than 5.00. For the same compound, the solubility thermodynamic (Equilibrium solubility; pH 2, simulated gastric fluid, read-out: Equilibrium solubility at pH 2) was greater than 1000 µg/mL, the solubility thermodynamic (Equilibrium solubility; pH 7.4, aqueous buffer, read-out: Equilibrium solubility at pH 7.4) was 280 µg/mL (≈ 483 µM) and the half-life [1] was greater than 40 min. It also gave a half-life [2] greater than 40 min, a half-life [3] of 21 min and a pIC50 (CYP 1A2) of less than 4.52. It also gave a pIC50 (CYP 2C9) of less than 4.52, a Papp (Caco-2 permeability) of 1.26 ×10⁻⁶ cm/s and a Protein binding (Protein binding, dog) of 94 % bound. The Protein binding (Protein binding, human) was 95 % bound, the bioavailability (Rat bioavailability) was greater than 42% and the Mouse bioavailability (Mouse bioavailability; CD-1 mouse, CEP-37440 as amorphous HCl salt) was 102%. It also gave a bioavailability (Mouse bioavailability; Scid, mouse, in vivo, po) of 99%, a bioavailability (Monkey bioavailability; 10 mg/kg) of 50% and a bioavailability (Monkey bioavailability; 30 mg/kg) of 74%. For the same compound, the survival ([4]; 2.5, 7.5, 20 mg/kg/day, 4 weeks) was “All animals survived until their scheduled sacrifice”, the ECG ([4]; 2.5, 7.5, 20.0 mg/kg/day, Days 3 and 27 of dosing, Day 28 of recovery) was “No drug-related changes in PR interval, QRS duration, QT interval, corrected QT (QTc) interval, RR interval, or heart rate” and the body weight ([4]; dosing or recovery phase) was “no drug-related effects on body weight or body weight gain”. For the same compound, the “doses well tolerated, no drug-related effects” value ([4]; oral, 28 consecutive days) was “up to 20 mg/kg/day”, the “clinical pathology test results” value ([4]; up to 20.0 mg/kg/day) was “had no effect on clinical pathology test results” and the pulmonary edema ([4]; up to 20 mg/kg/day, 28 days) was “no evidence whatsoever of pulmonary edema”. For the same compound, the anti-tumor efficacy ([5]; 10 mg/kg or lower, bid, po) was “No significant anti-tumor activity”, the anti-tumor efficacy ([5]; 30 mg/kg bid po) was “complete or near complete tumor regression” and the anti-tumor efficacy ([5]; 30 mg/kg, qd, po) was “partial tumor regression”. The anti-tumor efficacy ([5]; 55 mg/kg qd po) was “complete or near complete tumor regression”, the “tolerability, body weight” value ([5]; all dosing regimens) was “well tolerated with no overt toxicity and no significant compound-related body weight loss” and the “plasma level at 2 h post final dosing versus 2 h post single oral dose” value [5, 12] was 2-3 fold. The “tumor level at 2 h post final dosing versus 2 h post single oral dose” value [5, 12] was “more than 10 fold”, the anti-tumor efficacy ([6]; 30 mg/kg bid, 12 days) was “complete or near complete tumor regression” and the anti-tumor efficacy ([6]; 30 mg/kg qd) was “significant anti-tumor activity”. For the same compound, the anti-tumor efficacy ([6]; 55 mg/kg, qd, 12 days) was “complete or near complete tumor regression”, the “tolerability, body weight” value ([6]; all dosing regimens) was “well tolerated with no overt toxicity and no significant body weight loss” and the “incidence of partial tumor regressions” value ([7]; 30 mg/kg bid, 28-day period) was 20%. For the same compound, the “incidence of partial tumor regressions” value ([7]; 55 mg/kg bid, 28-day period) was 30%, the anti-tumor efficacy ([7]; 28-day period) was “tumor stasis” and the tolerability ([7]; all dosing regimens) was “well-tolerated with no morbidity or mortality observed”. The “tumor pharmacodynamic inhibition of FAK activation” value ([7]; no effect on total FAK expression levels) was “clear tumor pharmacodynamic effect for inhibition of FAK activation”, the TGI ([8]; 30 mg/kg bid, day 28) was 60% and the TGI ([8]; 55 mg/kg bid, day 28) was 80%. The “incidence of complete tumor regressions” value ([8]; 55 mg/kg bid, day 28) was 30%, the “incidence of partial tumor regressions” value ([8]; 55 mg/kg bid, day 28) was 30% and the “incidence of tumor regressions” value ([8]; 55 mg/kg bid, day 28) was 60%. For the same compound, the “tolerability, body weight” value ([8]; mouse, in vivo) was “well tolerated, with no overt toxicity or significant body weight loss observed”, the “incidence of complete tumor regressions” value ([9]; 36 day period, oral) was 10% and the “tumor growth inhibition (TGI)” value ([9]; 36 day period, oral, equivalent doses of both compounds) was 55%. For the same compound, the “tolerability, body weight” value ([9]; all dosing regimens) was “well tolerated with no overt toxicity or significant body weight loss observed”, the “doses with drug-related adverse findings (body weight, bone marrow, spleen, thymus, lymph node, lung)” value ([10]; daily gavage) was no less than 30 mg/kg/day and the dose well tolerated ([10]; rat, in vivo) was 10 mg/kg/day. The NOAEL at 4 weeks (in vivo) was 10 mg/kg/day, the “mice with sustained tumor regressions, no tumor re-emergence” value ([11]; 40 days following cessation of treatment) was 100% and the “animals with sustained complete tumor regression” value [11, 13] was 100%. For the same compound, the “tolerability, body weight” value [11, 13] was “well tolerated with no overt toxicity and no significant body weight loss”.

Reference: patent publication US10632119B2, “Fused bicyclic 2,4-diaminopyrimidine derivative as a dual ALK and FAK inhibitor” (priority 2012, dated 2020)
